Test system: slow reacting substance of anaphylaxis (SRS-A)
Assay: Inhibition of SRS-A induced contraction of guinea pig ileum
Type: cell-based
Details: Cavia porcellus, 0.25 h, partially purified SRS-A from guinea pig lung at 40 μg/ml, isolated guinea pig ileum, read-out: antagonism of SRS-A
Method: The SRS-A antagonist activity of the compounds of this invention is measured by the ability of the active medicament to inhibit SRS-A induced contraction of guinea pig ileum. In this test system, sections of ileum are resected from guinea pigs and placed in 5 ml. tissue baths containing a modified Tyrode's solution. One end of the tissue is fixed to a glass tissue holder, the other is connected to a force-displacement transducer and the tissue is placed under a tension of 500 mg. Isometric tissue contractions are recorded on a six channel polygraph. Baths are constantly aerated with 95% O2 -5% CO2. After a 20 minute stabilization period a concentration of the appropriate agonist which provides a contraction height of 60-80% of the maximum obtainable to that agonist (as determined from full sequential concentration--response curves in separate experiments) is added to the tissue bath and the response recorded. The procedure is repeated until reproducible responses are obtained. […] Percent inhibition produced by the test compound is calculated by substracting the mean percentage change in control tissue from the mean percentage change in tissues exposed to the test compound. Additional compounds are then evaluated as long as the tissue remains reproducibly responsive to the agonist. […]

Compound | inhibition at 50 µM (test compound 5×10^-5 M) | inhibition at 10 µM (test compound 1×10^-5 M)
O=S(=O)(Nc1ccc(Br)cc1)NS(=O)(=O)Nc1ccc(Br)cc1 [1,5-di-(4-bromophenyl)-imidodisulfamide] | 47% | –
O=S(=O)(NCCCCc1ccccc1)NS(=O)(=O)NCCCCc1ccccc1 [1,5-di-(4-phenylbutyl)-imidodisulfamide] | – | 40%
